Assay results as given in patent US9566341B1, “Compounds including Cox inhibitor moiety and enhanced delivery of active drugs using same” (University of Kentucky Research Foundation, priority 2011, dated 2017).
Entries after “also recorded” stand apart in the source; their conditions may differ. Like-named read-outs stand apart in the source and are kept apart here.

Experiments:
[1] = Chemical stability in 0.3M acetate buffer pH 5.0 at 32° C.; format: physicochemical
From the text: The chemical stability of the prodrugs to hydrolysis and solvolysis at the appropriate temperatures will be determined by measuring concentrations over time in the buffers and solvents used in the solubility and diffusion studies. Chemical degradation rate constants will be important in distinguishing enzymatic degradation from non-enzymatic degradation. Codrug enzymatic metabolism rate constants can also be determined in skin homogenates, to ascertain if the values are useful in the QSPR multiple regression analysis. The kinetics of codrug enzymatic degradation in skin homogenates will be done using abdominal plastic surgery samples. Enzymatic reaction rates will be determined at several different codrug concentrations. The skin is homogenized (Polytron tissue homogenizer and ground glass homogenizer fitted with a glass pestle) in HEPES-buffered Hanks' balanced salt solution and the supernatant is obtained. The enzymatic hydrolysis rates are determined in the homogenate at 37° C. The codrug and its metabolites will be obtained by solid-phase extraction, or another appropriate extraction method. Naltrexone and any other metabolite formed will be assayed by HPLC and expressed as moles of metabolite per minute per milligram of protein. Protein concentrations in the supernatant will be measured by the Bradford method. Controls containing only codrug and HEPES-buffered Hanks' balanced salt solution at 37° C. will also be monitored to determine non-enzymatic hydrolysis.
Chemical and enzymatic stability was determined for the codrugs. For chemical stability studies, the codrug was put in prewarmed 0.3M acetate buffer pH 5.0 after solubilization in <5% ACN, if required, at 32° C. in an incubator. Samples were withdrawn at regular intervals and injected into the HPLC after appropriate dilutions. Enzymatic stability studies are important for estimation of conversion of codrugs in the plasma. […] All stability data was analyzed using pseudo first order kinetics. […]

[2] = Enzymatic stability in hairless guinea pig plasma; format: in vitro ADME; settings: for enzymatic stability half-life in hairless guinea pig plasma: HGP plasma, 37° C., n=3
Experimental: Chemical and enzymatic stability was determined for the codrugs. For chemical stability studies, the codrug was put in prewarmed 0.3M acetate buffer pH 5.0 after solubilization in <5% ACN, if required, at 32° C. in an incubator. Samples were withdrawn at regular intervals and injected into the HPLC after appropriate dilutions. Enzymatic stability studies are important for estimation of conversion of codrugs in the plasma. For plasma stability studies prewarmed HGP plasma at 37° C. was spiked with codrug solution and samples were withdrawn at regular intervals. 100 μl of plasma sample was extracted with 1 ml of 1:1 ACN:ethyl acetate, vortexed, centrifuged at 10,000 rpm for 20 minutes on a bench top Eppendorf Mini Spin®. The supernatant was decanted into a glass tube and evaporated under nitrogen. Samples were reconstituted in 100 μl ACN and injected onto the HPLC. All stability data was analyzed using pseudo first order kinetics. All stability studies were carried out at least, in triplicate.

[3] = In vitro diffusion study across microneedle-treated full thickness Yucatan miniature pig skin; format: in vitro ADME; settings: for bioconversion of the codrug in the skin: parent drugs in receiver/skin
Experimental: For all in vitro experiments female Yucatan minipig skin (6 months old) were used. Skin sections were obtained by removing the subcutaneous fatty tissue by scalpel dissection, and were stored at −20° C. A PermeGear flow-through (In-Line, Riegelsville, Pa., USA) diffusion cell system was used for the skin permeation studies.
The skin was pierced 20 times with an array containing 5 MN (i.e., to make a total of 100 individual and non-over lapping piercings) before mounting the skin in the diffusion cell for the treatment group. The insertion of MN into skin was carried out manually by applying gentle finger pressure followed by instantaneous removal. MN's were distributed evenly within the 0.95 cm^2 area of skin and could easily be visualized after each 5 MN insertion, as to prevent reapplication in the same area. Single MN array of 5 were used simply out of ease for the experimental procedure. If any damage to an MN section was observed the section was replaced. […] Untreated skin samples were simply placed in the diffusion cells. Diffusion cells were kept at 32° C. using a circulating water bath. Data were collected using skin from a single pig 3-4 cells for the MN treated formulations.
The physiological receiver solution was water adjusted to pH 7.4 containing 20% ethanol, and the flow rate was adjusted to 1.5 ml/h. Each cell was charged with 0.25 ml of the donor in the donor compartment of the chamber. The diffusion cells were covered with a stopper to prevent evaporation. Samples were collected from the receiver compartment in six-hour increments over 48 h or for the length of the treatment. All samples were stored at 4° C. until analyzed by HPLC.
The in vitro permeation experiments were carried out to determine the transdermal flux of the parent drugs and the codrug, permeation coefficients as well as the concentration of the drug molecules in the skin at the end of the study. For all in vitro experiments Yucatan miniature pig (YP) skin was used. Full thickness skin was obtained by removing the subcutaneous fatty tissue by scalpel dissection, and stored at −20° C. A PermeGear flow-through (In-Line, Riegelsville, Pa., USA) diffusion cell system was used for the skin permeation studies. […] The skin was pierced 20 times with a 5 MN array (making 100 individual and non-over lapping piercings) before mounting the skin in the diffusion cell. MN pores were distributed evenly within the 0.95 cm^2 area of skin. Untreated skin samples were mounted directly onto the diffusion cells. The setup was maintained at 32° C. using a circulating water bath. Data collected using a minimum of 3-4 cells per treatment group. The receiver solution was water alkalified to pH 7.4 containing 20% ethanol at 37° C. Gentamycin sulfate (50 mg/L) was added to the receiver for 7 day studies as an antibacterial agent. The receiver flow rate was adjusted to 1.5 ml/h to maintain skin conditions. Each cell was charged with 0.25 ml of the donor and the diffusion cells were covered with a stopper to prevent evaporation of formulation. Samples were collected at regular increments over 48 hours or for the length of the treatment. Drug was concentrated 10 fold by evaporating 1 ml of the collected sample under nitrogen and reconstituting in 100 μl of ACN for quantification. All samples were stored at 4° C. until analyzed by HPLC. The skin was removed at the end of the study and the treatment area was diced into small pieces using a scalpel after removing all excess drugs from top of the skin. Drug was extracted out by immersing the skin pieces in ACN overnight in a shaker water bath at 32° C. Samples were injected into the HPLC after appropriate dilution for quantitative analysis. The donor was also removed and quantified at the end of the study by direct injection onto HPLC after suitable dilution using ACN. All data was analyzed using Fick's first law of diffusion. […]

[4] = Concentration of saturated donor solution; format: physicochemical; settings: base form; PG:ethanol:water=43:43:14
Experimental: Solubility studies are carried out by equilibrating large excesses of each drug with the solvent studied. The experiments will be done at skin surface temperature (32° C.). To hasten the attainment of equilibrium, each slurry will be continuously shaken or stirred. Samples will be taken, filtered with an appropriate filter for the solvent, measured with respect to volume, and either assayed directly by HPLC or evaporated to dryness and reconstituted for assay. Binding of the compounds to the filter will be checked to eliminate the possibility of drug adsorption on the filter and/or filter casing. All toxic solvents and other chemicals will be handled with caution, and fume hoods will be used when appropriate.
In vitro experiments. The goal of the first set of in vitro experiments was to estimate flux and skin concentration of the base form of the codrug.

[5] = test system: hairless guinea pig micropores; assay: In vivo micropore visualization by gentian violet/India ink staining after MN treatment; settings: codrug gel under occlusion, patch changed at 3.5 days
From the text: The patches were removed at predetermined time points and the site was cleaned with sterile gauze. Gentian violet/India ink was applied as the dyeing agent at the MN treated sites and allowed to dry before excess dye was removed with ethanol and gauze. Both the dyes stain the viable epidermis but not the intact SC. […] The donor was removed from the top of the skin at the end of the study and analyzed by direct injection onto HPLC after suitable dilution using ACN.
All animal experiments were approved by the University of Kentucky IACUC. A proof of concept in vivo experiment was carried out. 4% w/w gels were prepared with the hydrochloride salt form of the codrug. Gels were formulated by dissolving 4% codrug salt in PG: buffer at pH 5.0=10:90 and 3.0% hydroxyethylcellulose (HEC) polymer (required to have a gel formulation). Polymer was dissolved over a 30 minute period to obtain a homogenous gel. The solution was stirred until a viscous gel resulted and then left at room temperature for 1½ to 2 hours to remove bubbles and ensure complete polymerization. The gel was saturated with excess solid and therefore was cloudy. MN treated animals were first cleaned topically with isopropyl alcohol, and 50 MN array was applied twice mutually perpendicular to each other to give a total of 100 pores at each site. 0.3 mL gel doses were applied to the dorsal region of the HGP. After application of the gel the skin was occluded with the occlusive patch and biocclusive tape was applied to prevent evaporation of the formulation. The patch was changed with new formulation at 3.5 days such that more than 50% intact codrug was always present in formulation. […] The patches were removed to obtain data at successive 24 h time intervals.
The patches were removed at predetermined time points and the site was cleaned with sterile gauze. Gentian violet/India ink was applied as the dyeing agent at the MN treated sites and allowed to dry before excess dye was removed with ethanol and gauze. Both the dyes stain the viable epidermis but not the intact SC.

[6] = in vivo, po, cited from earlier work
[7] = cited from earlier work

Row | Compound | Chemical stability [1] [days] | Enzymatic stability [2] [min] | enzymatic stability half-life in hairless guinea pig plasma [2] | enzymatic stability half-life in hairless guinea pig plasma ([2]; listed as Compound 2U) [min] | enzymatic stability half-life in hairless guinea pig plasma ([2]; listed as codrug) [min] | diclofenac skin concentration versus effective skin concentration goal of FIG. 5 [3] | flux of NTX from the codrug relative to diclofenac flux ([3]; FIG. 6) | bioconversion of the codrug in the skin ([3]; MN treated skin) | bioconversion of the codrug in the skin ([3]; MN treated skin, listed as Compound 2U) | bioconversion of the codrug in the skin ([3]; MN treated skin, listed as codrug) | steady state flux of naltrexone from the codrug ([3]; base form, saturated donor PG:ethanol:water=43:43:14, MN treated skin, 48 h, n=3) | steady state flux of diclofenac from the codrug ([3]; base form, saturated donor PG:ethanol:water=43:43:14, MN treated skin, 48 h, n=3, listed as Compound 2U) | concentration of saturated donor solution [4] [µg/mL] | time the pores stay open after MN treatment [5] [days] | oral bioavailability [6] | oral bioavailability ([6]; listed as Naltrexone) | log P [7]
1 | O=C(Cc1ccccc1Nc1c(Cl)cccc1Cl)Oc1ccc2c3c1O[C@H]1C(=O)CC[C@@]4(O)[C@@H](C2)N(CC2CC2)CC[C@]314 [Compound 2A] | 3.9 ± 0.56 | 6.4 ± 0.84 | around 6 minutes | 6.4 ± 0.84 | 6.4 ± 0.84 | did not provide that level | twice as high | bioconverted completely in the skin | degraded in the skin to regenerate back the parent drugs | completely hydrolyzed in the skin; also recorded: degraded in the skin to regenerate back the parent drugs | 0.42±0.12 nmol/(cm^2/h) | 0.19±0.06 nmol/(cm^2/h) | 4500 | 7 |  |  | 
2 | O=C1CC[C@@]2(O)[C@H]3Cc4ccc(O)c5c4[C@@]2(CCN3CC2CC2)[C@H]1O5 [NTX, Naltrexone] |  |  |  |  |  |  |  |  |  |  |  |  |  |  | 5-40% | five to forty | 1.8
